# Experimental data published in patent US20200337310A1, “Herbicidal Combinations” (UPL LTD, priority 2018, published 2020).
# Experiments:
# Experiment in all cases: Field trial, weed control burn down symptoms at 5 DAT
# Settings in all cases: field trial India, glufosinate ammonium 400, carfentrazone 10, imazethapyr 100 gm/ha
# Parthenium hysterophorus = system: Parthenium hysterophorus
# Cyprus spp = system: Cyprus spp
# Trianthema monogyna = system: Trianthema monogyna
# Dinebra retroflexa = system: Dinebra retroflexa
Structure (SMILES),"% Weed control Burn Down Symptoms Generation, Parthenium hysterophorus, Actual (Parthenium hysterophorus) [%]","% Weed control Burn Down Symptoms Generation, Cyprus spp, Actual (Cyprus spp) [%]","% Weed control Burn Down Symptoms Generation, Trianthema monogyna, Actual (Trianthema monogyna) [%]","% Weed control Burn Down Symptoms Generation, Dinebra retroflexa, Actual (Dinebra retroflexa) [%]"
"CCc1cnc(C2=NC(C)(C(C)C)C(=O)N2)c(C(=O)O)c1 (racemic) [Imazethapyr, 5-ethyl-2-[(RS)-4-isopropyl-4-methyl-5-oxo-2-imidazolin-2-yl]nicotinic acid]",5,00,10,0
"CP(=O)(O)CCC(N)C(=O)O (racemic) [Glufosinate ammonium, (2RS)-2-amino-4-[hydroxy(methyl)phosphinoyl]butyric acid]",30,5,25,15
"CCOC(=O)C(Cl)Cc1cc(-n2nc(C)n(C(F)F)c2=O)c(F)cc1Cl (racemic) [Carfentrazone, ethyl (RS)-2-chloro-3-{2-chloro-5-[4-(difluoromethyl)-4,5-dihydro-3-methyl-5-oxo-1H-1,2,4-triazol-1-yl]-4-fluorophenyl}propionate]",5,60,70,0
